“And” between values parts separate entries of the source, which are not always exact repeats. Identical values can stand only once.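 Dose response: 5 concentrations. Exposure: 48 h. Format: 96-well plates. Endpoint: linear interpolation; highest concentration if not reached. At the GI50, growth is halved. At the TGI there is no net growth.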
What was measured:
Experiment in all cases: growth of human tumour cells (NCI), 48 h
[1] = system: MOLT-4 leukemia
[2] = system: UACC-62 melanoma
[3] = system: HL-60(TB) leukemia
[4] = system: HOP-62 NSCLC
[5] = system: MCF7 breast
[6] = system: RXF 393 renal
[7] = system: NCI-H23 lung
[8] = system: TK-10 renal
[9] = system: UACC-257 melanoma
[10] = system: SNB-19 CNS

Structure (SMILES)	TGI [1]	TGI [2]	TGI [3]	TGI [4]	TGI [5]	TGI [6]	TGI [7]	TGI [8]	TGI [9]	TGI [10]	GI50 [1]	GI50 [2]	GI50 [3]	GI50 [4]	GI50 [5]	GI50 [6]	GI50 [7]	GI50 [8]	GI50 [9]	GI50 [10]
O=C(O)CC1(C(=O)O)CCCCC1	> 100 µM	> 100 µM	> 100 µM	> 100 µM	> 100 µM	> 100 µM	> 100 µM	> 100 µM	> 100 µM	> 100 µM										
COc1ccc(Nc2ccnc(NCCCNc3ccnc4cc(Cl)ccc34)n2)cc1	7.22 µM	2.96 µM	4.1 µM	4.44 µM	2.42 µM	2.3 µM	8.5 µM	3.17 µM	2.75 µM	10.1 µM	1.45 µM	1.4 µM	1.59 µM	1.61 µM	0.599 µM	0.897 µM	2.43 µM	1.54 µM	1.33 µM	2.61 µM
O=C(Nc1ccc(Br)c(Cl)c1)c1cc(F)ccc1O	2.81 µM	2.09 µM	2.83 µM	> 13.2 µM	> 50 µM	3.97 µM	3.17 µM	29.8 µM	2.79 µM	> 50 µM	0.943 µM	0.242 µM	0.97 µM	0.893 µM	0.883 µM	1.06 µM	0.36 µM	1.92 µM	0.526 µM	0.729 µM
CCCC(=O)NNc1[nH]c(-c2ccc(OC)cc2)cc1C(=O)OCC	> 100 µM	30 µM	93.2 µM	> 100 µM	35.3 µM	45.1 µM	38 µM	30.1 µM	14.8 µM	> 100 µM	6.52 µM	16.4 µM	3.1 µM	> 100 µM	17.7 µM	22 µM	14.9 µM	15.9 µM	1.6 µM	54.3 µM
COc1ccc(-c2nc(-c3nc4cc(C)c(C)cc4[nH]3)cc3c2[nH]c2ccccc23)cc1	6.46 µM	6.7 µM	5.96 µM	> 100 µM	59.7 µM	3.66 µM	68.2 µM	> 100 µM	14.4 µM	> 100 µM	2.37 µM	2.25 µM	2.59 µM	7.63 µM	3.22 µM	1.72 µM	11 µM	7.85 µM	3.47 µM	68.9 µM
O=C(/C=C\Sc1nccc(C(F)(F)F)n1)c1ccc(Br)cc1	16.2 µM	60.7 µM	20.8 µM	> 100 µM	84.8 µM	40.9 µM	52.6 µM	59.6 µM	> 100 µM	> 100 µM	4.44 µM	23.6 µM	0.84 µM	> 100 µM	28 µM	18.5 µM	22.8 µM	26.4 µM	56.4 µM	36.9 µM
CCOC(=O)c1cc2ncccc2c2ccccc12	> 100 µM	> 100 µM	> 100 µM	> 100 µM	> 100 µM	> 100 µM	> 100 µM	> 100 µM	> 100 µM	> 100 µM										
COC(=O)C#Cc1ccc([N+](=O)[O-])cc1	2.88 µM	6.86 µM	4.32 µM	6.87 µM	9.04 µM	4.11 µM	3.68 µM	3.79 µM	7.12 µM	8.47 µM										
CN1CCN(Cc2ccc(Nc3ncc(Cl)c(Nc4ccccc4S(=O)(=O)N(C)C)n3)cc2)CC1		0.18 µM	0.198 µM	0.9 µM	1.17 µM	0.122 µM	0.358 µM	1.19 µM	0.82 µM	2.96 µM		0.0229 µM	0.0175 µM	0.0344 µM	< 0.01 µM	0.033 µM	0.0338 µM	0.0819 µM	0.0473 µM	0.0529 µM
Cn1cnc2c(NCc3ccccc3)nc(NCCO)nc21	356 µM	> 89.9 µM and 302 µM	> 73 µM and 220 µM	> 86 µM and 183 µM	90.4 µM and > 268 µM	40.4 µM and 187 µM	382 µM	> 456 µM	> 474 µM	382 µM	103 µM	67.5 µM	73.2 µM		62.9 µM	17.7 µM	110 µM	135 µM	155 µM	98.9 µM
C[C@]12CCC(=O)C=C1CC[C@@H]1[C@@H]2CC[C@]2(C)C(=O)/C(=C/c3cccc(OCCN4CCOCC4)c3)C[C@@H]12		27.5 µM	5.82 µM	29 µM	71.7 µM	20.9 µM	20.6 µM	> 100 µM	19 µM	> 100 µM		11 µM	2.13 µM	12.6 µM	9.11 µM	5.62 µM	3.79 µM	17.7 µM	6.13 µM	15.8 µM
Cc1ccc(S(=O)(=O)n2cc(C(=O)C(=O)Nc3ccncc3)c3ccccc32)cc1	> 76.5 µM	> 46.7 µM	3.66 µM	> 100 µM	27.3 µM	9.29 µM	> 60.7 µM	> 100 µM	98.1 µM	> 100 µM	1.77 µM	0.829 µM	0.635 µM	4.43 µM	0.373 µM	2.7 µM	0.556 µM	16.8 µM	9.03 µM	7.37 µM
O=C1C=CC2(C=C1)CCN=c1c(O)c3c(c(O)c12)=NC=N3	> 100 µM		> 100 µM	30.3 µM and > 100 µM	28.7 µM and > 100 µM	30.1 µM and > 100 µM	19.5 µM and > 100 µM	38.4 µM and > 100 µM	21.6 µM and > 100 µM	27.1 µM	21.7 µM and > 100 µM		8.02 µM and 59.9 µM	16.3 µM and > 100 µM	11.9 µM and > 100 µM	16.2 µM and > 100 µM		22.7 µM and > 100 µM		
CCNc1nc(N2CC(=O)Nc3cc(OC)ccc32)c2ccccc2n1	> 100 µM	> 100 µM	0.000581 µM	14.2 µM	> 100 µM		> 100 µM	> 100 µM		> 100 µM	0.000472 µM	0.00054 µM	0.000235 µM	0.00227 µM	0.000369 µM	0.001 µM	0.000554 µM	0.0822 µM		0.00067 µM
